Measured values: patent publication US7951374B2, “Methods for inhibiting STAT3 signaling in immune cells” (University of South Florida, priority 2004, dated 2011)

Experiments:
phosphorylated Stat1 = assay: Stat1P levels in tumor-infiltrating DCs after intravenous CPA-7, intracellular flow cytometry; format: in vivo, mouse; details: 24 hours after intravenous injection (FIG. 33)
Description: (§1) Isolation of tumor-infiltrating immune cell subsets and intracellular staining of signaling molecules. Freshly excised tumor tissues were gently minced into small pieces and incubated in 400 U/ml of collagenase D (Roche) solution for 30 minutes at 37° C. Cell suspensions were filtered through a mesh filter for isolation of various immune cell subsets using specific antibodies in combination with EASYSEP magnetic nanoparticles (StemCell Technologies, Canada). Isolated tumor-infiltrating cells were fixed in paraformaldehyde and permeated in methanol before intracellular staining with antibodies to phosphotyrosine-Stat3 and Stat1 (BD Biosciences) or with Foxp3-specific antibody (eBiosciences). Fluorescence data was collected on FACSCalibur (Beckton Dickinson) and analyzed using FlowJo software (Tree Star).
(§2) To further characterize activation of CPA-7 treated immune cells, Phospho-Stat3 (Stat3P) levels in tumor-infiltrating DCs were assessed 24 hours after intravenous injection with vehicle or CPA-7 and compared to splenic CD11c^+ cells from tumor-free Stat3^+/+ mice. […] Also shown in FIG. 33, CPA-7 treated tumor-infiltrating DCs have increased phosphorylated Stat1.

[1] = system: MB49, B16 or C4 tumor cells; assay: Lung tumor nodules after intravenous tumor cell injection and CPA-7 treatment; format: in vivo, mouse; details: 5×10^4 MB49, B16 or C4 cells i.v., CPA-7 5 mg/kg twice weekly, day 21 (FIG. 38)
Description: Mice were injected intravenously with 5×10^4 MB49, B16 or C4 tumor cells, followed by twice weekly treatment with CPA-7 (5 mg/kg) or vehicle (10% DMSO). Lung colonies were enumerated 21 days later, when control mice became moribund.
To visualize lung tumor nodules, lungs were fixed and bleached in Fekete's solution with or without India ink as a counterstain.

Stat3 = molecular target: T1, Stat3 (Mus musculus, UniProt P42227); assay: EMSA of Stat DNA binding in DC2.4 dendritic cells preincubated with CPA-7 (Stat3); format: cell-based; details: DC2.4 cells, 10 μm CPA-7 overnight, then 20 ng/ml IL-6 for 20 minutes, EMSA (FIG. 32)
T1 construct: endogenous in cells; host or cells: mouse DC2.4 dendritic cells
Description: Mouse DC2.4 dendritic cells were preincubated with 10 μm CPA-7 overnight and then stimulated for 20 minutes with 20 ng/ml IL-6 (activator of both Stat3 and Stat1), 500 U/ml IFN-γ (activator of […]) or 20 ng/ml GM-CSF (activator of Stat5). After cell lysis, nuclear extracts were prepared and EMSA was conducted to detect DNA binding.

YAC-1 cells = assay: 51Cr-release assay of NK cell cytotoxicity from tumor-bearing mice treated with CPA-7; format: in vivo, mouse; details: NK cells from tumor-bearing mice treated with CPA-7, YAC-1 targets (FIG. 35)
Description: Cytotoxicity assays. NK cell and neutrophil cytotoxicity assays were performed as described by Wei, S. et al., J. Exp. Med. 187, 1753-1765 (1998), which is incorporated herein by reference. Briefly, a 4-hour ^51Cr-release assay was carried out using YAC-1 cells as targets for enriched NK cells or FcγR^+ mouse mastocytoma (P815) cells as targets for enriched neutrophils. Cytotoxicity of CPA-7-treated NK cells from tumor-bearing hosts was assessed using a standard ^51Cr-release assay with YAC-1 cells as targets, as described in Example 1.

Phospho-Stat3 (Stat3P) = molecular target: T2, Phospho-Stat3 (Stat3P) (Mus musculus, UniProt P42227); assay: Phospho-Stat3 levels in MB49 tumor-infiltrating DCs after intravenous CPA-7, intracellular flow cytometry; format: in vivo; details: 24 hours after intravenous injection, compared to vehicle-treated mice (FIG. 33)
T2 construct: from tissue; host or cells: tumor-infiltrating dendritic cells from MB49 tumors of mice
Description: as §1, §2

[2] = Immunohistochemical analysis of colon sections for autoimmune pathology; format: in vivo, mouse; details: tumor-bearing Stat3+/+ and Stat3−/− mice, CPA-7 every third day for three weeks (FIG. 30)
Description: Transverse colon sections were stained with hematoxylin-eosin and antibodies to CD4, CD8 or CD11b. Staining with rat IgG was used as a negative control.
Colons from tumor free Stat3^−/− mice were evaluated for autoimmune effects at 20 weeks after Stat3 deletion by immunohistochemical analysis. […] In contrast, there was virtually no evidence of systemic autoimmunity at 4 weeks after induced depletion in tumor-bearing Stat3^+/+ and Stat3^−/− mice (FIG. 29).

MB49 tumors = assay: Growth of established MB49 tumors in mice treated with CPA-7; format: in vivo, mouse
Description: For CPA-7 treatment, MB49 tumors were implanted into male C57BL/6 mice and tumors were allowed to grow until 5-7 mm in diameter. Mice were given intravenous injections of either vehicle (10% DMSO/PBS) or 5 mg/kg CPA-7 once every 3 days.
Mice with MB49 tumors (about 6 mm in diameter) received intravenous injections of either vehicle or CPA-7.
Mice with established MB49 tumors were treated with vehicle or CPA-7 in combination with control or asialo GM1-specific antibody.

MB49 tumor cells = assay: CPA-7-induced tumor-cell apoptosis in vitro by annexin V staining; format: cell-based, mouse; details: annexin V staining (FIG. 31)
Description: Cell lines. Mouse B16 melanoma, YAC-1 and P815 target cells were purchased from American Type Culture Collection. MB49 bladder carcinoma and C4 mouse melanoma lines were gifts from T. Ratliff (University of Iowa) and J. Fidler (M.D. Anderson Cancer Center), respectively.
Flow cytometry. Single-cell suspensions were prepared by mechanic dispersion of spleen or tumor tissues. 1×10^6 freshly prepared cells suspended in a mixture of PBS, 2% FCS and 0.1% (wt/vol) sodium azide were preincubated with FcγIII/IIR-specific antibody to block nonspecific binding and cells were stained with different combinations of fluorochrome-coupled antibodies to CD11c, I-A^b (MHC class II), CD86, CD11b, Gr1, CD49b, CD3, CD25 or Lag-3, or with annexin V (BD Biosciences). Fluorescence data was collected on FACSCalibur (Beckton Dickinson) and analyzed using FlowJo software (Tree Star).
The effects of blocking Stat3 in immune cells with CPA-7, a small-molecule Stat3 inhibitor, were assessed. For these experiments, both B16 and MB49 tumor cells were used. In contrast to B16, MB49 tumor cells are insensitive to CPA-7-induced tumor-cell apoptosis, as determined by annexin V staining.

T2 sequence (P42227 whole entry): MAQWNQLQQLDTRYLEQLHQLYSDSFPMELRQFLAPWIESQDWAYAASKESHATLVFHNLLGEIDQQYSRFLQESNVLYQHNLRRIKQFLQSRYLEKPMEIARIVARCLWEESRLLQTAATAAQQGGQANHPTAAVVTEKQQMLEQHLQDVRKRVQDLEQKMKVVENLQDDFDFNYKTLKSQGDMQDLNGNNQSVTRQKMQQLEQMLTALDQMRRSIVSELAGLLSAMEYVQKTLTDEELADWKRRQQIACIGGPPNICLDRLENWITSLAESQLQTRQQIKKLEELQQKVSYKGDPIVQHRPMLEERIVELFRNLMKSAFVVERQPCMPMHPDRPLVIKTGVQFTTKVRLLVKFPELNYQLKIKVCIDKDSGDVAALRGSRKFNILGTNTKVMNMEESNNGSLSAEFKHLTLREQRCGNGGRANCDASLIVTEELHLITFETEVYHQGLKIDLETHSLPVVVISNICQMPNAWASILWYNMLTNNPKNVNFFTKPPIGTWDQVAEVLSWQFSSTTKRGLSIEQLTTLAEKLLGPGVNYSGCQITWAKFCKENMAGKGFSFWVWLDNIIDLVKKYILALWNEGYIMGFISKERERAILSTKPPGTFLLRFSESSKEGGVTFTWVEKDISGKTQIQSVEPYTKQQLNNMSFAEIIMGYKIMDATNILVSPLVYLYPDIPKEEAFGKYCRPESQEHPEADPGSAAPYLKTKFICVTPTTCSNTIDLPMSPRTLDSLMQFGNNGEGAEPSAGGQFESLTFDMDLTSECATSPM
T1 sequence (P42227 whole entry): as above

## [NH2][Pt]([NH2])([Cl])([Cl])([Cl])[N+](=O)[O-] [CPA-7]
Phosphorylated Stat1
  phosphorylated Stat1 in tumor-infiltrating DCs: increased
[1]
  lung tumor nodules: significantly reduced or completely abrogated
Stat3
  inhibition of Stat3 DNA binding: inhibits Stat3
YAC-1 cells
  NK cell activity (cytotoxicity): increased
Phospho-Stat3 (Stat3P)
  phosphorylated Stat3 in tumor-infiltrating DCs: considerably reduced
[2]
  pathologic changes in colons: lack of pathologic changes
MB49 tumors; MB49 tumors about 6 mm in diameter, intravenous CPA-7 5 mg/kg once every 3 days (FIG. 34)
  growth of established tumors: inhibits the growth of established tumors
MB49 tumors; MB49 tumors, antibodies to CD4 and CD8 (FIG. 34)
  CPA-7-induced tumor growth inhibition in the absence of CD4+ and CD8+ T cells: abrogated
MB49 tumors; established MB49 tumors, asialo GM1-specific antibody (FIG. 36)
  in vivo antitumor effects of CPA-7 treatment with NK depletion: partially abrogates
MB49 tumor cells
  sensitivity to CPA-7-induced tumor-cell apoptosis: insensitive
